≈ marks a conversion by molar mass, not a printed value.
Experiments:
Format in all cases: functional, cell-based
[1] = test system: B16-F10; assay: Cytotoxic activity against B16F10 mouse melanoma cells
[2] = test system: DA-3 cell line; assay: Cytotoxic activity against DA-3 mouse mammary adenocarcinoma cells
[3] = test system: HT-29; assay: Cytotoxic activity against HT-29 human colon adenocarcinoma cells
[4] = test system: KB; assay: Cytotoxic activity against KBV vinblastine resistant KB cells; conditions: Homo sapiens
[5] = test system: KB; assay: Cytotoxic activity against KB human nasopharyngeal carcinoma cells
[6] = test system: KB; assay: Cytotoxic activity against Human nasopharyngeal KB cell line

Row | Structure (SMILES) | IC50 [1] | IC50 [2] | IC50 [3] | IC50 [4] | IC50 [5] | IC50 [6]
1 | COc1ccc(C[C@H]2NC(=O)/C=C/C[C@@H](C(Br)C#Cc3ccccc3)OC(=O)[C@H](CC(C)C)OC(=O)CCNC2=O)cc1 (stereo partly specified) | > 10 nM | > 10 nM | > 10 nM | > 10 nM | > 10 nM | –
2 | COc1ccc(C[C@H]2NC(=O)/C=C/C[C@@H](C[C@H]3O[C@@H]3c3ccccc3)OC(=O)[C@H](CC(C)C)OC(=O)[C@H](C)CNC2=O)cc1 | > 10 nM | 3 nM | 4 nM | > 10 nM | 6 nM | –
3 | COc1ccc(C[C@H]2NC(=O)/C=C/C[C@@H](C(=O)C#Cc3ccccc3)OC(=O)[C@H](CC(C)C)OC(=O)[C@H](C)CNC2=O)cc1 | > 10 nM | > 10 nM | > 10 nM | > 10 nM | > 10 nM | –
4 | COc1ccc(C[C@H]2NC(=O)/C=C/C[C@@H]([C@@](C)(O)C#Cc3ccccc3)OC(=O)[C@H](CC(C)C)OC(=O)CCNC2=O)cc1 | > 10 nM | > 10 nM | > 10 nM | > 10 nM | > 10 nM | –
5 | COc1ccc(C[C@H]2NC(=O)/C=C/C[C@@H](CC#Cc3ccccc3)OC(=O)[C@H](CC(C)C)OC(=O)[C@@H](C)CNC2=O)cc1 | > 10 nM | > 10 nM | > 10 nM | > 10 nM | > 10 nM | –
6 | COc1ccc(C[C@H]2NC(=O)/C=C/C[C@@H](C(=O)C#Cc3ccccc3)OC(=O)[C@H](CC(C)C)OC(=O)CCNC2=O)cc1 | > 10 nM | > 10 nM | > 10 nM | > 10 nM | > 10 nM | –
7 | COc1ccc(C[C@H]2NC(=O)/C=C/C[C@@H](C(O)CCc3ccccc3)OC(=O)[C@H](CC(C)C)OC(=O)CCNC2=O)cc1 (stereo partly specified) | > 10 nM | > 10 nM | > 10 nM | > 10 nM | > 10 nM | –
8 | COc1ccc(C[C@H]2NC(=O)/C=C/C[C@@H](C(=O)[C@H]3O[C@@H]3c3ccccc3)OC(=O)[C@H](CC(C)C)OC(=O)[C@H](C)CNC2=O)cc1 | > 10 nM | > 10 nM | > 10 nM | > 10 nM | > 10 nM | –
9 | COc1ccc(C[C@H]2NC(=O)/C=C/C[C@@H]([C@@H](C)/C=C/c3ccccc3)OC(=O)[C@H](CC(C)C)OC(=O)[C@H](C)CNC2=O)cc1 | > 10 nM | > 10 nM | > 10 nM | > 10 nM | > 10 nM | –
10 | COc1ccc(C[C@H]2NC(=O)/C=C/C[C@@H]([C@@](C)(O)/C=C\c3ccccc3)OC(=O)[C@H](CC(C)C)OC(=O)CCNC2=O)cc1 | > 10 nM | > 10 nM | > 10 nM | > 10 nM | > 10 nM | –
11 | COc1ccc(C[C@H]2NC(=O)/C=C/C[C@@H](C(Br)C#Cc3ccccc3)OC(=O)[C@H](CC(C)C)OC(=O)[C@H](C)CNC2=O)cc1 (stereo partly specified) | > 10 nM | > 10 nM | > 10 nM | > 10 nM | > 10 nM | –
12 | COc1ccc(C[C@H]2NC(=O)/C=C/C[C@@H](C/C=C/c3ccccc3)OC(=O)[C@H](CC(C)C)OC(=O)[C@H](C)CNC2=O)cc1 | > 10 nM | > 10 nM | > 10 nM | > 10 nM | > 10 nM | –
13 | COc1ccc(C[C@H]2NC(=O)/C=C/C[C@@H]([C@H](C)[C@H]3O[C@@H]3c3ccccc3)OC(=O)[C@H](CC(C)C)OC(=O)[C@H](C)CNC2=O)cc1 | 0.3 nM | 0.2 nM | 0.3 nM | 0.8 nM | 0.3 nM | –
14 | COc1ccc(C[C@H]2NC(=O)/C=C/C[C@@H](C(Br)C#Cc3ccccc3)OC(=O)[C@H](CC(C)C)OC(=O)[C@@H](C)CNC2=O)cc1 (stereo partly specified) | > 10 nM | > 10 nM | > 10 nM | > 10 nM | > 10 nM | –
15 | COc1ccc(C[C@H]2NC(=O)/C=C/C[C@@H]([C@](C)(O)/C=C\c3ccccc3)OC(=O)[C@H](CC(C)C)OC(=O)CCNC2=O)cc1 | > 10 nM | > 10 nM | > 10 nM | > 10 nM | > 10 nM | –
16 | COc1ccc(C[C@H]2NC(=O)/C=C/C[C@@H](C/C=C/c3ccccc3)OC(=O)[C@H](CC(C)C)OC(=O)[C@H](C)CNC2=O)cc1Cl | > 10 nM | > 10 nM | > 10 nM | > 10 nM | > 10 nM | –
17 | COc1ccc(C[C@H]2NC(=O)/C=C/C[C@@H]([C@H](C)/C=C/c3ccccc3)OC(=O)[C@H](CC(C)C)OC(=O)[C@H](C)CNC2=O)cc1 | > 10 nM | > 10 nM | > 10 nM | > 10 nM | > 10 nM | –
18 | COc1ccc(C[C@H]2NC(=O)/C=C/C[C@@H](C(=O)/C=C/c3ccccc3)OC(=O)[C@H](CC(C)C)OC(=O)[C@H](C)CNC2=O)cc1Cl | > 10 nM | > 10 nM | > 10 nM | > 10 nM | > 10 nM | –
19 | COc1ccc(C[C@H]2NC(=O)/C=C/C[C@@H]([C@H](C)/C=C/c3ccccc3)OC(=O)[C@H](CC(C)C)OC(=O)[C@H](C)CNC2=O)cc1Cl [CRYPTOPHYCIN 3] | 2 nM | 1 nM | 1 nM | 5 nM | 2 nM | 3 ng/mL (≈ 4.69 nM)

Row | Structure (SMILES) | IC50 [1] | IC50 [2] | IC50 [3] | IC50 [4] | IC50 [5] | IC50 [6]
20 | COc1ccc(C[C@H]2NC(=O)/C=C/C[C@@H](C(=O)/C=C\c3ccccc3)OC(=O)[C@H](CC(C)C)OC(=O)CCNC2=O)cc1 | > 10 nM | > 10 nM | > 10 nM | > 10 nM | > 10 nM | –
21 | COc1ccc(C[C@H]2NC(=O)/C=C/C[C@@H]([C@@H](C)[C@H]3O[C@@H]3c3ccccc3)OC(=O)[C@H](CC(C)C)OC(=O)[C@H](C)CNC2=O)cc1 | > 4 nM | > 10 nM | 3 nM | > 10 nM | > 10 nM | –
22 | COc1ccc(C[C@H]2NC(=O)/C=C/C[C@@H](C(=O)/C=C/c3ccccc3)OC(=O)[C@H](CC(C)C)OC(=O)CCNC2=O)cc1 | > 10 nM | > 10 nM | > 10 nM | > 10 nM | > 10 nM | –
23 | COc1ccc(C[C@H]2NC(=O)/C=C/C[C@@H](C(=O)/C=C/c3ccccc3)OC(=O)[C@H](CC(C)C)OC(=O)[C@H](C)CNC2=O)cc1 | > 10 nM | > 10 nM | > 10 nM | > 10 nM | > 10 nM | –
24 | COc1ccc(C[C@H]2NC(=O)/C=C/C[C@@H](C(O)/C=C/c3ccccc3)OC(=O)[C@H](CC(C)C)OC(=O)[C@H](C)CNC2=O)cc1 (stereo partly specified) | > 10 nM | > 10 nM | > 10 nM | > 10 nM | > 10 nM | –
25 | COc1ccc(C[C@H]2NC(=O)/C=C/C[C@@H](CCCc3ccccc3)OC(=O)[C@H](CC(C)C)OC(=O)CCNC2=O)cc1 | > 10 nM | > 10 nM | > 10 nM | > 10 nM | > 10 nM | –
26 | COc1ccc(C[C@H]2NC(=O)/C=C/C[C@@H]([C@](C)(O)C#Cc3ccccc3)OC(=O)[C@H](CC(C)C)OC(=O)CCNC2=O)cc1 | > 10 nM | > 10 nM | > 10 nM | > 10 nM | > 10 nM | –
27 | COc1ccc(C[C@H]2NC(=O)/C=C/C[C@@H](C(O)C#Cc3ccccc3)OC(=O)[C@H](CC(C)C)OC(=O)CCNC2=O)cc1 (stereo partly specified) | > 10 nM | > 10 nM | > 10 nM | > 10 nM | > 10 nM | –
28 | COc1ccc(C[C@H]2NC(=O)/C=C/C[C@@H](C(O)CCc3ccccc3)OC(=O)[C@H](CC(C)C)OC(=O)[C@H](C)CNC2=O)cc1 (stereo partly specified) | > 10 nM | > 10 nM | > 10 nM | > 10 nM | > 10 nM | –
29 | COc1ccc(C[C@H]2NC(=O)/C=C/C[C@@H](CCCc3ccccc3)OC(=O)[C@H](CC(C)C)OC(=O)CCNC2=O)cc1Cl | > 10 nM | > 10 nM | > 10 nM | > 10 nM | > 10 nM | –
30 | COc1ccc(C[C@H]2NC(=O)/C=C/C[C@@H](C(=O)CCc3ccccc3)OC(=O)[C@H](CC(C)C)OC(=O)CCNC2=O)cc1 | > 10 nM | > 10 nM | > 10 nM | > 10 nM | > 10 nM | –
31 | COc1ccc(C[C@H]2NC(=O)/C=C/C[C@@H](C(O)/C=C/c3ccccc3)OC(=O)[C@H](CC(C)C)OC(=O)CCNC2=O)cc1 (stereo partly specified) | > 10 nM | > 10 nM | > 10 nM | > 10 nM | > 10 nM | –
32 | COc1ccc(C[C@H]2NC(=O)/C=C/C[C@@H](C(=O)C#Cc3ccccc3)OC(=O)[C@H](CC(C)C)OC(=O)[C@@H](C)CNC2=O)cc1 | > 10 nM | > 10 nM | > 10 nM | > 10 nM | > 10 nM | –
33 | COc1ccc(C[C@H]2NC(=O)/C=C/C[C@@H](C(C#Cc3ccccc3)OS(C)(=O)=O)OC(=O)[C@H](CC(C)C)OC(=O)CCNC2=O)cc1 (stereo partly specified) | > 10 nM | > 10 nM | > 10 nM | > 10 nM | > 10 nM | –
34 | COc1ccc(C[C@H]2NC(=O)/C=C/C[C@@H](C(/C=C/c3ccccc3)OC(C)=O)OC(=O)[C@H](CC(C)C)OC(=O)[C@H](C)CNC2=O)cc1 (stereo partly specified) | > 10 nM | > 10 nM | > 10 nM | > 10 nM | > 10 nM | –
35 | COc1ccc(C[C@H]2NC(=O)/C=C/C[C@@H](C(C#Cc3ccccc3)OS(C)(=O)=O)OC(=O)[C@H](CC(C)C)OC(=O)[C@@H](C)CNC2=O)cc1 (stereo partly specified) | > 10 nM | > 10 nM | > 10 nM | > 10 nM | > 10 nM | –
36 | COc1ccc(C[C@H]2NC(=O)/C=C/C[C@@H](C(C#Cc3ccccc3)OS(C)(=O)=O)OC(=O)[C@H](CC(C)C)OC(=O)[C@H](C)CNC2=O)cc1 (stereo partly specified) | > 10 nM | > 10 nM | > 10 nM | > 10 nM | > 10 nM | –
37 | COc1ccc(C[C@H]2NC(=O)/C=C/C[C@@H](C(O)C#Cc3ccccc3)OC(=O)[C@H](CC(C)C)OC(=O)[C@@H](C)CNC2=O)cc1 (stereo partly specified) | > 10 nM | > 10 nM | > 10 nM | > 10 nM | > 10 nM | –

Source: ChEMBL document CHEMBL1128913, “Synthesis and in vitro cytotoxicity of cryptophycins and related analogs” (Bioorg Med Chem Lett, 1996)
